# Literature values in patent US20120071440A1, “Pharmaceutical Composition For Enhancing Adiponectin Production And Food Useful Therefor” (priority 2009, published 2012).
# Test system: adiponectin
# Details: reported in Diabetes Research and Clinical Practice 2004
smiles,measurement,value
Cn1c(=O)c2c(ncn2C)n(C)c1=O [caffeine],adiponectin production,"capable of producing adiponectin, but this effect is not large"
